Source: patent US20260365653A1, “IRREVERSIBLE MUTEGFR INHIBITORS” (Bayer Aktiengesellschaft, priority 2022, published 2026)
Several values for one entry are separate records, joined by “and”; a condition that tells them apart may be missing. Equal values may be shown once.

Columns and labels:
[1] = target: T1, mutEGFR (D770_N771insSVD) (Homo sapiens, UniProt P00533, DUP768-770); assay: Exon20-Mutant-EGFR (D770_N771insSVD) kinase assay (TR-FRET); format: biochemical
T1 construct: GST-EGFR #3 (SVD between D770 and N771); made in house; host or cells: Sf9 insect cells (baculovirus)
T1 sequence (P00533 with tags, fused parts or gaps DUP768-770): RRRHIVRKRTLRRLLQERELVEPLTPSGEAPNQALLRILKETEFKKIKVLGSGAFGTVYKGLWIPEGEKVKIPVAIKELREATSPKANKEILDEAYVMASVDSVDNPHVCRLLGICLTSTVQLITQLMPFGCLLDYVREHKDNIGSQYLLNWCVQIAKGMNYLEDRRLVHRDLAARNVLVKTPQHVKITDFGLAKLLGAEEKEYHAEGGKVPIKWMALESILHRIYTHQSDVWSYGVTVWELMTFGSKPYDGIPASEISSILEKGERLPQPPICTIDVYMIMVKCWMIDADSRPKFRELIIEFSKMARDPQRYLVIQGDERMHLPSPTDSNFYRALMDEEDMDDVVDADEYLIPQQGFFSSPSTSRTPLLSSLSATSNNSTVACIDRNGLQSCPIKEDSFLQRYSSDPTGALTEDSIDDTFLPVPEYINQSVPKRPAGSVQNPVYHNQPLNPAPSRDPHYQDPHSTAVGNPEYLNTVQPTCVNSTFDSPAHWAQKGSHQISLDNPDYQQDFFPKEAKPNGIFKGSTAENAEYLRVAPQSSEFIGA

[2] = target: T2, mutEGFR (D770_N771insNPG, T790) (Homo sapiens, UniProt P00533, INS770NPG/T790M); assay: mutEGFR (D770_N771insNPG, T790) kinase assay; format: biochemical
T2 construct: exact insNPG construct not described; in-house EGFR proteins were N-terminal GST fusions from baculovirus/insect cells (borders R669-A1210 given only for WT, insSVD, insASV)
T2 sequence (P00533 with tags, fused parts or gaps INS770NPG/T790M limits assumed): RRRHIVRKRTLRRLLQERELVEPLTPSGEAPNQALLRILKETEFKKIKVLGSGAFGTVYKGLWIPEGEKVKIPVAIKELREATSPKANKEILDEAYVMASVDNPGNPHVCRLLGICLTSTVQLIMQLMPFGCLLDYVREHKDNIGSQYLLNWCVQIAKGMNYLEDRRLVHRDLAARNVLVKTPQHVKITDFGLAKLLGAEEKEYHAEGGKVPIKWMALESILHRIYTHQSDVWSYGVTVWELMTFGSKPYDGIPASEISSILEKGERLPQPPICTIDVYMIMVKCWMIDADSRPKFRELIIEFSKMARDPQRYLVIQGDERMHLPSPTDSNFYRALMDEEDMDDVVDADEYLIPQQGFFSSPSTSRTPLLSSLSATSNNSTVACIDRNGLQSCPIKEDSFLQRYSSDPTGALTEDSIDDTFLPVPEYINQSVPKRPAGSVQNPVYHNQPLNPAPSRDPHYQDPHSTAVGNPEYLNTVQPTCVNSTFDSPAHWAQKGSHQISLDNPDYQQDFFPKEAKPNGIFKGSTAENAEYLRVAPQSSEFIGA
From the text: The different EGFR proteins used in the biochemical kinase activity inhibition assays were generated inhouse by expression in insect cells using Baculo Virus system and subsequent purification as described in the following paragraphs.
The cDNAs encoding the various protein sequences from human EGFR human (P00533) were optimized for expression in eukaryotic cells and synthesized by the GeneArt Technology at Life Technologies.

BA/F3 (insSVD) cells = assay: Ba/F3-EGFR-insSVD cell survival assay (Cell Titer-Glo); format: cell-based
Procedure, shortened: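 CellTiter-Glo luminescence read after 48 h compound exposure at 37° C. Cells: IL-3-independent Ba/F3 lines transduced with EGFR-insSVD or EGFR-insSVD T790M, maintained on 10 ng/ml EGF and seeded at 4000 per well.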

[3] = system: BA/F3 (EGFR D770_N771 insSVD T790M) cells; assay: Ba/F3-EGFR-insSVD T790M cell survival assay (Cell Titer-Glo); format: cell-based; conditions: Ba/F3 EGFR-D770-N771ins_SVD, 48 h
Protocol: Cellular Data Description (WT, insSVD, insSVD T790M) 293T cells from ATCC were transfected with pBABEpuro expression constructs for WT EGFR or EGFR-insSVD, or EGFR-insSVD T790M, and pCL-Eco packaging vector using Fugene-6 transfection reagent from Promega. Plates were incubated at 37° C. for 48 h. Retrovirus was harvested by filtering the media supernatant through a 0.45 μm filter.
Ba/F3 cells purchased from DSMZ were grown in RPMI+10% FBS+10 ng/ml IL-3 and infected with filtered retroviral supernatant at a 1:2 dilution. Polybrene was added to a concentration of 8 μg/mL, plates were spun for 90 min, and incubated for 16 h at 37° C. 2 μg/mL puromycin was added to the infected cells 24 h after infection and cells were continually grown in the presence of puromycin and 10 ng/ml IL-3. Following stably expressing Ba/F3 cell lines were generated: Ba/F3-EGFR-WT, Ba/F3-EGFR-insSVD, Ba/F3-EGFR-insSVD T790M, (Ba/F3-vector-control).
For cell survival assays, Ba/F3 cells were grown to a density of 1-2 million cells per mL, spun down and resuspended in media without IL-3, and replated at a concentration of 200,000-500,000 cells per mL. The cells ectopically expressing WT EGFR, EGFR-insSVD, or EGFR-insSVD T790M were plated with 10 ng/ml Millipore Culture grade EGF. The cells ectopically expressing pBABEpuro empty vector were plated with 10 ng/mL IL-3.
2 days later, cells were plated in 50 µL in a 384 well plate at a concentration of 4000 cells per well for cells assayed in the absence of IL-3 and 2000 cells per well for cells assayed in the presence of IL-3. 100 nL of compound was added to each well using a 100 nL pin head, and plates were incubated at 37° C. for 48 h.
Cell viability was measured by adding 20 μL of Cell Titer-Glo Luminescent Cell Viability Reagent diluted 1:3 in PBS. Plates were sealed with Perkin Elmer Top-Seal, inverted several times to mix, and immediately centrifuged at 1000 rpm for 2 min. Plates were incubated in low light conditions for 8-10 min and luminescence was measured.

[4] = mutEGFR (D770_N771insSVD) kinase assay IC50, Table 2a, D770_N771insSVD, 2 mM ATP
[5] = Mus musculus, BaF3, 48 h, Table 3a, cell survival, Cell Titer-Glo, with 10 ng/ml EGF, without IL-3
[6] = Table 3a, cell survival, Cell Titer-Glo, with 10 ng/ml EGF, without IL-3
[7] = mutEGFR (D770_N771insSVD) kinase assay IC50, Table 2b (from US Priority Patent Application), mutEGFR D770_N771insSVD
[8] = Table 2b (from US Priority Patent Application), mutEGFR D770_N771insNPG
[9] = Mus musculus, BaF3, 48 h, Table 3b, Ba/F3 EGFR-insSVD
[10] = Table 3b, Ba/F3 EGFR-insSVD T790M

Row | SMILES | IC50 [1, 4] | IC50 ([2]; Table 2a, D770_N771insNPG) [nM] | IC50 (BA/F3 (insSVD) cells; [5]) [nM] | IC50 [3, 6] [nM] | IC50 (BA/F3 (insSVD) cells; Table 3a, cell survival, Cell Titer-Glo, with 10 ng/ml EGF, without IL-3, 48 h) [nM] | IC50 [1, 7] [nM] | IC50 [2, 8] [nM] | IC50 (BA/F3 (insSVD) cells; [9]) [nM] | IC50 [3, 10] [nM]
1 | C=CC(=O)N1Cc2c(-c3ccncc3)c(-c3ccc(F)cc3)nn2C(CO)C1 (racemic) [Example 203, 1-[(7RS)-2-(4-fluorophenyl)-7-(hydroxymethyl)-3-(pyridin-4-yl)-6,7-dihydropyrazolo[1,5-a]pyrazin-5(4H)-yl]prop-2-en-1-one] | 0.409 nM | 1.42 | 17.4 | 108 | – | – | – | – | –
2 | C=CC(=O)N1C(C)c2c(-c3ccncc3)c(-c3ccc(Cl)cc3F)nn2C[C@@H]1C (single isomer, unassigned; isomer 2) [Example 293] | 50.3 nM | 96 | – | 9980 | 380 | – | – | – | –
3 | C=CC(=O)N1CCn2nc(-c3ccc(F)cc3)c(-c3ccncc3)c2C1 [Example 1, 1-[2-(4-fluorophenyl)-3-(pyridin-4-yl)-6,7-dihydropyrazolo[1,5-a]pyrazin-5(4H)-yl]prop-2-en-1-one] | 0.618 nM | 0.953 | 34.6 | 119 | – | 0.618 | 0.953 | 34.6 | 119
4 | C=CC(=O)N1CCn2nc(-c3ccc(Cl)cc3)c(-c3ccncc3)c2C1 [Example 3, 1-[2-(4-chlorophenyl)-3-(pyridin-4-yl)-6,7-dihydropyrazolo[1,5-a]pyrazin-5(4H)-yl]prop-2-en-1-one] | 0.139 nM | 0.324 | 13.2 | 108 | – | 0.139 | 0.324 | 13.2 | 108
5 | C=CC(=O)N1CCn2nc(-c3cccc(OC)c3)c(-c3ccncc3)c2C1 [Example 5, 1-[2-(3-methoxyphenyl)-3-(pyridin-4-yl)-6,7-dihydropyrazolo[1,5-a]pyrazin-5(4H)-yl]prop-2-en-1-one] | 2.19 nM | 1.04 | 80.5 | 114 | – | 2.19 | 1.04 | 80.5 | 114
6 | CC(C)N(C)C/C=C/C(=O)N1CCn2nc(-c3ccc(F)cc3)c(-c3ccnc(NC(=O)C4CC4)c3)c2C1 [Example 6, N-{4-[2-(4-fluorophenyl)-5-{(2E)-4-[methyl(propan-2-yl)amino]but-2-enoyl}-4,5,6,7-tetrahydropyrazolo[1,5-a]pyrazin-3-yl]pyridin-2-yl}cyclopropanecarboxamide] | 0.326 nM | 0.407 | 22.3 | 207 | – | 0.326 | 0.407 | 22.3 | 207
7 | C=CC(=O)N1CCn2nc(-c3ccc(F)cc3)c(-c3ccnc(NC(=O)C4CC4)c3)c2C1 [Example 7, N-{4-[2-(4-fluorophenyl)-5-(prop-2-enoyl)-4,5,6,7-tetrahydropyrazolo[1,5-a]pyrazin-3-yl]pyridin-2-yl}cyclopropanecarboxamide] | 0.209 nM | 0.408 | 12.4 | 60.1 | – | 0.209 | 0.408 | 12.4 | 60.1
8 | C=CC(=O)N1CCn2nc(-c3ccc(F)cc3)c(-c3ccnc(N)c3)c2C1 [Example 10, 1-[3-(2-aminopyridin-4-yl)-2-(4-fluorophenyl)-6,7-dihydropyrazolo[1,5-a]pyrazin-5(4H)-yl]prop-2-en-1-one] | 0.849 nM | 2.26 | 46.5 | 346 | – | 0.849 | 2.26 | 46.5 | 346
9 | C=CS(=O)(=O)N1CCn2nc(-c3ccc(F)cc3)c(-c3ccncc3)c2C1 [Example 14, 5-(ethenesulfonyl)-2-(4-fluorophenyl)-3-(pyridin-4-yl)-4,5,6,7-tetrahydropyrazolo[1,5-a]pyrazine] | 0.406 nM | 0.867 | 760 | 983 | – | 0.406 | 0.867 | 760 | 983
10 | CC(C)N(C)C/C=C/C(=O)N1CCn2nc(-c3ccc(F)cc3)c(-c3ccncc3)c2C1 [Example 18, (2E)-1-[2-(4-fluorophenyl)-3-(pyridin-4-yl)-6,7-dihydropyrazolo[1,5-a]pyrazin-5(4H)-yl]-4-[methyl(propan-2-yl)amino]but-2-en-1-one] | 0.451 nM | 1.76 | 143 | 9980 | – | 0.451 | 1.76 | 143 | 0.217
11 | C=CC(=O)N1CCn2nc(-c3ccc(Cl)c(F)c3)c(-c3ccncc3)c2C1 [Example 36, 1-[2-(4-chloro-3-fluorophenyl)-3-(pyridin-4-yl)-6,7-dihydropyrazolo[1,5-a]pyrazin-5(4H)-yl]prop-2-en-1-one] | 0.321 nM | 1.13 | 17.9 | 126 | – | – | – | – | –
12 | C=CC(=O)N1Cc2c(-c3ccncc3)c(-c3ccc4sccc4c3)nn2C[C@H]1C [Example 277, 1-[(6R)-2-(1-benzothiophen-5-yl)-6-methyl-3-(pyridin-4-yl)-6,7-dihydropyrazolo[1,5-a]pyrazin-5(4H)-yl]prop-2-en-1-one] | < 0.0725 nM and 0.0955 nM and 0.111 nM | 0.153 | 2.77 | – | – | – | – | – | –
13 | C=CC(=O)N1Cc2c(-c3ccnc4[nH]cc(C)c34)c(-c3cccc(C#N)c3)nn2C[C@@H]1C [Example 283, 3-[(6S)-6-methyl-3-(3-methyl-1H-pyrrolo[2,3-b]pyridin-4-yl)-5-(prop-2-enoyl)-4,5,6,7-tetrahydropyrazolo[1,5-a]pyrazin-2-yl]benzonitrile] | 249 nM | 30.3 | 37.5 | – | – | – | – | – | –
14 | C=CC(=O)N1Cc2c(-c3ccnc4[nH]cc(C)c34)c(-c3cccc(C#N)c3)nn2C[C@H]1C [Example 284, 3-[(6R)-6-methyl-3-(3-methyl-1H-pyrrolo[2,3-b]pyridin-4-yl)-5-(prop-2-enoyl)-4,5,6,7-tetrahydropyrazolo[1,5-a]pyrazin-2-yl]benzonitrile] | 1380 nM | 174 | 530 | – | – | – | – | – | –
15 | Cc1c[nH]c2nccc(-c3c(-c4cccc(C#N)c4)nn4c3CN(C(=O)/C=C/CN(C)C)[C@@H](C)C4)c12 [Example 288, 3-[(6S)-5-[(2E)-4-(dimethylamino)but-2-enoyl]-6-methyl-3-(3-methyl-1H-pyrrolo[2,3-b]pyridin-4-yl)-4,5,6,7-tetrahydropyrazolo[1,5-a]pyrazin-2-yl]benzonitrile] | 344 nM | 53.8 | 181 | – | – | – | – | – | –
16 | Cc1c[nH]c2nccc(-c3c(-c4cccc(C#N)c4)nn4c3CN(C(=O)/C=C/CN(C)C)[C@H](C)C4)c12 [Example 289, 3-[(6R)-5-[(2E)-4-(dimethylamino)but-2-enoyl]-6-methyl-3-(3-methyl-1H-pyrrolo[2,3-b]pyridin-4-yl)-4,5,6,7-tetrahydropyrazolo[1,5-a]pyrazin-2-yl]benzonitrile] | 6740 nM | 348 | 910 | – | – | – | – | – | –
